Laboratory results published in PubChem BioAssay AID2060503 (Molecular Pharmacology Branch, DTP, NCI, 2025).
pIC50: −log10 of the molar value. Each block holds one compound with its values, some of them ahead of it.

Test system: 817829-284-R-J1-PDC complex spheroids, viability
Test: Anticancer human tumor 817829-284-R-J1-PDC patient-derived colon adenocarcinoma cell line growth inhibition [GQUAD]
Details: for pIC50: curve of first compound; for viability, T/C: stronger effect = lower value
Method in brief: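 Viability of tumor cells grown as complex spheroids with endothelial and stromal cells, exposed to drug combinations. Top concentration at or near clinical Cmax (else 10 microM), diluted in half-log increments.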

[1] = second compound 0.0316 µM, first compound 0.0316 µM
[2] = second compound 0.0316 µM, first compound 0.1 µM
[3] = second compound 0.0316 µM, first compound 0.316 µM
[4] = second compound 0.0316 µM, first compound 1 µM
[5] = second compound 0.0316 µM, first compound 3.16 µM
[6] = second compound 0.0316 µM, first compound 10 µM
[7] = second compound 0.1 µM, first compound 0.0316 µM
[8] = second compound 0.1 µM, first compound 0.1 µM
[9] = second compound 0.1 µM, first compound 0.316 µM
[10] = second compound 0.1 µM, first compound 1 µM
[11] = second compound 0.1 µM, first compound 3.16 µM
[12] = second compound 0.1 µM, first compound 10 µM
[13] = second compound 0.316 µM, first compound 0.0316 µM
[14] = second compound 0.316 µM, first compound 0.1 µM
[15] = second compound 0.316 µM, first compound 0.316 µM
[16] = second compound 0.316 µM, first compound 1 µM
[17] = second compound 0.316 µM, first compound 3.16 µM
[18] = second compound 0.316 µM, first compound 10 µM
[19] = second compound 1 µM, first compound 0.0316 µM
[20] = second compound 1 µM, first compound 0.1 µM
[21] = second compound 1 µM, first compound 0.316 µM
[22] = second compound 1 µM, first compound 1 µM
[23] = second compound 1 µM, first compound 3.16 µM
[24] = second compound 1 µM, first compound 10 µM
[25] = second compound 3.16 µM, first compound 0.0316 µM
[26] = second compound 3.16 µM, first compound 0.1 µM
[27] = second compound 3.16 µM, first compound 0.316 µM
[28] = second compound 3.16 µM, first compound 1 µM
[29] = second compound 3.16 µM, first compound 3.16 µM
[30] = second compound 3.16 µM, first compound 10 µM
[31] = second compound 10 µM, first compound 0.0316 µM
[32] = second compound 10 µM, first compound 0.1 µM
[33] = second compound 10 µM, first compound 0.316 µM
[34] = second compound 10 µM, first compound 1 µM
[35] = second compound 10 µM, first compound 3.16 µM
[36] = second compound 10 µM, first compound 10 µM
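Note: spheroids exposed to agents for 7 days before readout.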
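Throughout, for viability, T/C: percent viability relative to DMSO vehicle control taken as 100%.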

SMILES: COc1ncnc(C2CC2)c1-c1ncc2cnn(Cc3ccc(-c4nc(C(F)(F)F)cn4C(C)C)cc3)c2n1 + Cc1[nH]c2ccc(F)cc2c1-c1nc2c3cccnc3c3ncccc3c2[nH]1
- pIC50 (second compound 0.0316 µM): < 5.00
- pIC50 (second compound 0.1 µM): < 5.00
- pIC50 (second compound 0.316 µM): < 5.00
- pIC50 (second compound 1 µM): < 5.00
- pIC50 (second compound 3.16 µM): < 5.00
- pIC50 (second compound 10 µM): 7.49
- viability, T/C [1]: 99.1%
- viability, T/C [2]: 113%
- viability, T/C [3]: 101%
- viability, T/C [4]: 97.9%
- viability, T/C [5]: 113%
- viability, T/C [6]: 109%
- viability, T/C [7]: 96.6%
- viability, T/C [8]: 115%
- viability, T/C [9]: 99.8%
- viability, T/C [10]: 111%
- viability, T/C [11]: 108%
- viability, T/C [12]: 115%
- viability, T/C [13]: 105%
- viability, T/C [14]: 119%
- viability, T/C [15]: 101%
- viability, T/C [16]: 94.2%
- viability, T/C [17]: 110%
- viability, T/C [18]: 129%
- viability, T/C [19]: 118%
- viability, T/C [20]: 105%
- viability, T/C [21]: 117%
- viability, T/C [22]: 98.9%
- viability, T/C [23]: 108%
- viability, T/C [24]: 118%
- viability, T/C [25]: 63.5%
- viability, T/C [26]: 73.5%
- viability, T/C [27]: 56.4%
- viability, T/C [28]: 79.9%
- viability, T/C [29]: 84.8%
- viability, T/C [30]: 68.7%
- viability, T/C [31]: 50.2%
- viability, T/C [32]: 26.4%
- viability, T/C [33]: 27.8%
- viability, T/C [34]: 40.9%
- viability, T/C [35]: 15.1%
- viability, T/C [36]: 18.8%

- pIC50 (second compound 0.0316 µM): > 7.50
- pIC50 (second compound 0.1 µM): > 7.50
- pIC50 (second compound 0.316 µM): > 7.50
- pIC50 (second compound 1 µM): > 7.50
- pIC50 (second compound 3.16 µM): > 7.50
- pIC50 (second compound 10 µM): > 7.50
SMILES: CC1COCCN1c1cc(-c2ccnn2C)c2ccnc(-c3ccn[nH]3)c2n1 (stereo unspecified) + Cc1cnc(CNC(=O)c2c(=O)c3ccc(N4CCCN(C)CC4)nc3n3c2sc2ccccc23)cn1
- viability, T/C [1]: 14.8%
- viability, T/C [2]: 9.78%
- viability, T/C [3]: 9.09%
- viability, T/C [4]: 7.06%
- viability, T/C [5]: 6.16%
- viability, T/C [6]: 4.96%
- viability, T/C [7]: 13.3%
- viability, T/C [8]: 11.1%
- viability, T/C [9]: 8.18%
- viability, T/C [10]: 6.54%
- viability, T/C [11]: 6.01%
- viability, T/C [12]: 3.97%
- viability, T/C [13]: 15%
- viability, T/C [14]: 11.9%
- viability, T/C [15]: 8.36%
- viability, T/C [16]: 6.17%
- viability, T/C [17]: 5.71%
- viability, T/C [18]: 4.08%
- viability, T/C [19]: 13.8%
- viability, T/C [20]: 14.1%
- viability, T/C [21]: 9.19%
- viability, T/C [22]: 6.22%
- viability, T/C [23]: 5.53%
- viability, T/C [24]: 3.34%
- viability, T/C [25]: 11.8%
- viability, T/C [26]: 12.1%
- viability, T/C [27]: 8.66%
- viability, T/C [28]: 6.72%
- viability, T/C [29]: 3.24%
- viability, T/C [30]: 2.62%
- viability, T/C [31]: 0.06%
- viability, T/C [32]: 0.09%
- viability, T/C [33]: 0.11%
- viability, T/C [34]: 0.08%
- viability, T/C [35]: 0.12%
- viability, T/C [36]: 0.12%

- pIC50 (second compound 0.0316 µM): > 7.50
- pIC50 (second compound 0.1 µM): > 7.50
- pIC50 (second compound 0.316 µM): > 7.50
- pIC50 (second compound 1 µM): > 7.50
- pIC50 (second compound 3.16 µM): > 7.50
- pIC50 (second compound 10 µM): > 7.50
SMILES: CC1COCCN1c1cc(C2(O)CC3CCC(C2)O3)c2cnn(-c3ccn[nH]3)c2n1 (stereo unspecified) + Cc1cnc(CNC(=O)c2c(=O)c3ccc(N4CCCN(C)CC4)nc3n3c2sc2ccccc23)cn1
- viability, T/C [1]: 12.8%
- viability, T/C [2]: 9.62%
- viability, T/C [3]: 7.9%
- viability, T/C [4]: 5.56%
- viability, T/C [5]: 5.19%
- viability, T/C [6]: 3.22%
- viability, T/C [7]: 12.9%
- viability, T/C [8]: 10.7%
- viability, T/C [9]: 8.05%
- viability, T/C [10]: 5.97%
- viability, T/C [11]: 4.94%
- viability, T/C [12]: 2.88%
- viability, T/C [13]: 13.1%
- viability, T/C [14]: 9.42%
- viability, T/C [15]: 6.75%
- viability, T/C [16]: 6.83%
- viability, T/C [17]: 4.09%
- viability, T/C [18]: 2.08%
- viability, T/C [19]: 12.2%
- viability, T/C [20]: 11.2%
- viability, T/C [21]: 6.62%
- viability, T/C [22]: 5.07%
- viability, T/C [23]: 3.93%
- viability, T/C [24]: 1.59%
- viability, T/C [25]: 12.6%
- viability, T/C [26]: 9.23%
- viability, T/C [27]: 6.99%
- viability, T/C [28]: 3.25%
- viability, T/C [29]: 0.81%
- viability, T/C [30]: 0.2%
- viability, T/C [31]: 0.05%
- viability, T/C [32]: 0.1%
- viability, T/C [33]: 0.14%
- viability, T/C [34]: 0.08%
- viability, T/C [35]: 0.14%
- viability, T/C [36]: 0.12%
